# Reference: article PMC6896172, “Successful Targeting of the Warburg Effect in Prostate Cancer by Glucose-Conjugated 1,4-Naphthoquinones” (Cancers, 2019)
# System: 22Rv1 cells
# Assay: Global proteome analysis (LC-MS/MS, DIA) of differentially expressed proteins
# Type: cell-based, human
# Procedure: 22Rv1 cells were seeded in T75 culture bottles (4 × 10^6 cells/bottle in 20 mL/bottle), treated for 48 h with the 5 µM of compound 11 or vehicle (DMSO), harvested by scratching, washed twice with ice-cold PBS and flash-frozen. Cells were lysed and sonicated. The protein extracts were then heat-denaturated, reduced, alkylated and digested by trypsin. Peptides were chromatographically separated using full recovery autosampler vials and a nano-UPLC system (Acquity, Waters Corporation, Milford, MS, USA), coupled via electrospray ionization (ESI) to a tandem mass spectrometer equipped with a quadrupole and an orbitrap (QExactive, Thermo Fisher Scientific, Bremen, Germany), using MS/MS mode in data dependent acquisition (DDA) and data independent acquisition (DIA). The peptides, analyzed with DDA-LC-MS/MS, were identified with the search engine Sequest, integrated in the Proteome Discoverer software version 2.0 (Thermo Fischer Scientific) using the human Uniprot protein database (EMBL; Hinxton Cambridge, UK, release December 2018). […] For the details of sample preparation and proceeding, data acquisition and analysis see the Supplementary information. […]
# serum (FBS, Invitrogen) and 1% penicillin/streptomycin (Invitrogen)). […]
# Cell lines were lysed in 100 mM triethylammonium bicarbonate and 1% w/v sodium deoxycholate buffer followed by probe sonication to destroy polynucleotides and heat induce protein denaturing at 99 °C for 5 min. Protein concentrations were estimated with a bicinchonic acid (BCA) protein assay (Thermo Fisher Scientific, Bremen, Germany). 20 µg of protein were reduced in presence of 10 mM dithiotreithol (Sigma Aldrich) for 30 min at 60 °C followed by cysteine alkylation with 20 mM iodo acetamide (Sigma Aldrich) for 30 min at 37 °C in the dark and enzymatic degradation with sequencing grade trypsin (Promega) over night at 37 °C. Digestion was quenched with 1% formic acid (FA), precipitated sodium deoxycholate removed by centrifugation for 5 min at 14,000 g and the supernatant was dried in a vacuum centrifuge.
# LC-MS/MS in Data Dependent and Data Independent Mode
# Samples were resuspended in 0.1% FA and transferred into a full recovery autosampler vial (Waters). Chromatographic separation was achieved on a nano -UPLC system (Acquity, Waters Corporation, Milford, MS, USA) with a two-buffer-system (buffer A: 0.1% FA in water, buffer B:
# 0.1% FA in Acetonitrile (ACN), both at pH = 3). Attached to the UPLC was a reversed -phase peptide trapping column (Symmetry C18, 180 µm × 20 mm, 100 Å pore size, 5 µm particle size) for desalting, followed by a reversed-phase capillary separation of the tryptic peptides (BEH C18; 75 µm × 200 mm, 130 Å pore size, 1.7 µm particle size), using a 60 min gradient with increasing ACN concentration from 2–30% ACN. The eluting peptides were analyzed on a quadrupole-orbitrap mass spectrometer (QExactive, Thermo Fisher Scientific, Bremen, Germany) in data dependent acquisition (DDA) and data independent acquisition (DIA) for quantification.
# In DDA mode, one replicate of each cell line was randomly chosen and 1 µg per sample was used per LC-MS/MS run to build a reference spectral library used for data extraction of samples acquired in DIA mode. For DDA, the 12 most intense ions per precursor scan (1 × 10 6 ions, 70,000 Resolution, 120 ms fill time) were analyzed by MS/MS (HCD at 25 normalized collision energy, 1 × 105 ions, 17,500 Resolution, 50 ms fill time) in a range of 400–1300 m/z. A dynamic precursor exclusion of 20 s was used. For DIA, 1 µg of each sample was analyzed using a 30 sequential 20 Da fixed window method covering the mass range from 400 –1000 m/z. Per cycle, 2 precursor scans (1 × […]
# 28 normalized collision energy, 1 × 106 ions, 17,500 Resolution, 50 ms fill time) were performed.
# After the first precursor scan, 15 MS/MS scans were performed covering the precursor mass range from 400–700 m/z followed by the second precursor scan and another 15 MS/MS scans ranging from […]
# LC-MS/MS Data Processing and Analysis […]
smiles,measurement,setting,value
CC1(C)OC2OC(C(O)COC3=CC(=O)c4cccc(O)c4C3=O)C(O)C2O1 (stereo not shown) [Compound 11],Fold change (treated / control),protein ARID2_HUMAN (Q68CP9),0.5698
same,Fold change (treated / control),protein BAZ1B_HUMAN (Q9UIG0),0.5909
same,Fold change (treated / control),protein BCAM_HUMAN (P50895),0.2614
same,Fold change (treated / control),protein BRD1_HUMAN (O95696),0.5595
same,Fold change (treated / control),protein CBX5_HUMAN (P45973),0.6078
same,Fold change (treated / control),protein CCD86_HUMAN (Q9H6F5),0.6454
same,Fold change (treated / control),protein CEBPZ_HUMAN (Q03701),0.6117
same,Fold change (treated / control),protein CHCH5_HUMAN (Q9BSY4),0.3153
same,Fold change (treated / control),protein CISD1_HUMAN (Q9NZ45),0.6534
same,Fold change (treated / control),protein CLUS_HUMAN (P10909),0.6547
same,Fold change (treated / control),protein CMTD1_HUMAN (Q86VU5),0.6695
same,Fold change (treated / control),protein COASY_HUMAN (Q13057),0.6716
same,Fold change (treated / control),protein COQ5_HUMAN (Q5HYK3),0.6569
same,Fold change (treated / control),protein CPSF7_HUMAN (Q8N684),0.5898
same,Fold change (treated / control),protein CRIP2_HUMAN (P52943),0.5784
same,Fold change (treated / control),protein CX6B1_HUMAN (P14854),0.5635
same,Fold change (treated / control),protein DDX21_HUMAN (Q9NR30),0.6203
same,Fold change (treated / control),protein DDX50_HUMAN (Q9BQ39),0.5638
same,Fold change (treated / control),protein DDX52_HUMAN (Q9Y2R4),0.5706
same,Fold change (treated / control),protein DESP_HUMAN (P15924),0.5753
same,Fold change (treated / control),protein DHX30_HUMAN (Q7L2E3),0.6273
same,Fold change (treated / control),protein DPOE3_HUMAN (Q9NRF9),0.6062
same,Fold change (treated / control),protein E2AK2_HUMAN (P19525),0.6134
same,Fold change (treated / control),protein EDF1_HUMAN (O60869),0.6154
same,Fold change (treated / control),protein EFTU_HUMAN (P49411),0.6185
same,Fold change (treated / control),protein ELOV5_HUMAN (Q9NYP7),0.5895
same,Fold change (treated / control),protein FAKD2_HUMAN (Q9NYY8),0.6444
same,Fold change (treated / control),protein FKB10_HUMAN (Q96AY3),0.625
same,Fold change (treated / control),protein FKBP8_HUMAN (Q14318),0.6712
same,Fold change (treated / control),protein GCN1_HUMAN (Q92616),0.6676
same,Fold change (treated / control),protein GRSF1_HUMAN (Q12849),0.6529
same,Fold change (treated / control),protein H2AY_HUMAN (O75367),0.6499
same,Fold change (treated / control),protein HSPB6_HUMAN (O14558),0.6349
same,Fold change (treated / control),protein IF4A1_HUMAN (P60842),0.6202
same,Fold change (treated / control),protein IMA1_HUMAN (P52292),0.5682
same,Fold change (treated / control),protein IQEC2_HUMAN (Q5JU85),0.6175
same,Fold change (treated / control),protein K2013_HUMAN (Q8IYS2),0.3342
same,Fold change (treated / control),protein LRWD1_HUMAN (Q9UFC0),0.5648
same,Fold change (treated / control),protein MAP2_HUMAN (P50579),0.6543
same,Fold change (treated / control),protein MCM3_HUMAN (P25205),0.6329
same,Fold change (treated / control),protein MCM4_HUMAN (P33991),0.5634
same,Fold change (treated / control),protein MCM5_HUMAN (P33992),0.5949
same,Fold change (treated / control),protein MCM6_HUMAN (Q14566),0.6119
same,Fold change (treated / control),protein MCM7_HUMAN (P33993),0.5855
same,Fold change (treated / control),protein MIPEP_HUMAN (Q99797),0.6023
same,Fold change (treated / control),protein MTA1_HUMAN (Q13330),0.5631
same,Fold change (treated / control),protein MTA2_HUMAN (O94776),0.5939
same,Fold change (treated / control),protein MYOME_HUMAN (Q5VU43),0.6576
same,Fold change (treated / control),protein NDUA3_HUMAN (O95167),0.3195
same,Fold change (treated / control),protein NDUAC_HUMAN (Q9UI09),0.6076
same,Fold change (treated / control),protein NDUV1_HUMAN (P49821),0.6332
same,Fold change (treated / control),protein NUDC_HUMAN (Q9Y266),0.6476
same,Fold change (treated / control),protein P4HTM_HUMAN (Q9NXG6),0.3114
same,Fold change (treated / control),protein PCNA_HUMAN (P12004),0.6578
same,Fold change (treated / control),protein PDS5A_HUMAN (Q29RF7),0.5949
same,Fold change (treated / control),protein PTMA_HUMAN (P06454),0.5745
same,Fold change (treated / control),protein RFC2_HUMAN (P35250),0.5826
same,Fold change (treated / control),protein RFC3_HUMAN (P40938),0.567
same,Fold change (treated / control),protein RFC4_HUMAN (P35249),0.5722
same,Fold change (treated / control),protein RFC5_HUMAN (P40937),0.6148
same,Fold change (treated / control),protein RL1D1_HUMAN (O76021),0.6228
same,Fold change (treated / control),protein RL4_HUMAN (P36578),0.563
same,Fold change (treated / control),protein RL10A_HUMAN (P62906),0.5923
same,Fold change (treated / control),protein RL13_HUMAN (P26373),0.6224
same,Fold change (treated / control),protein RL15_HUMAN (P61313),0.6202
same,Fold change (treated / control),protein RL19_HUMAN (P84098),0.3072
same,Fold change (treated / control),protein RL23A_HUMAN (P62750),0.5699
same,Fold change (treated / control),protein RL23_HUMAN (P62829),0.6468
same,Fold change (treated / control),protein RL27A_HUMAN (P46776),0.6191
same,Fold change (treated / control),protein RL34_HUMAN (P49207),0.2863
same,Fold change (treated / control),protein RL36_HUMAN (Q9Y3U8),0.6291
same,Fold change (treated / control),protein RM11_HUMAN (Q9Y3B7),0.6501
same,Fold change (treated / control),protein RM45_HUMAN (Q9BRJ2),0.6189
same,Fold change (treated / control),protein RM53_HUMAN (Q96EL3),0.5657
same,Fold change (treated / control),protein RM54_HUMAN (Q6P161),0.6079
same,Fold change (treated / control),protein RPA34_HUMAN (O15446),0.6508
same,Fold change (treated / control),protein RPAB5_HUMAN (P62875),0.5655
same,Fold change (treated / control),protein RS2_HUMAN (P15880),0.6402
same,Fold change (treated / control),protein RS6_HUMAN (P62753),0.6108
same,Fold change (treated / control),protein RS9_HUMAN (P46781),0.6218
same,Fold change (treated / control),protein S27A3_HUMAN (Q5K4L6),0.6711
same,Fold change (treated / control),protein SERC1_HUMAN (Q9NRX5),0.3307
same,Fold change (treated / control),protein SIGIR_HUMAN (Q6IA17),0.5907
same,Fold change (treated / control),protein SMCA5_HUMAN (O60264),0.6602
same,Fold change (treated / control),protein SMRC1_HUMAN (Q92922),0.6541
same,Fold change (treated / control),protein SPB1_HUMAN (Q8IY81),0.6134
same,Fold change (treated / control),protein STRBP_HUMAN (Q96SI9),0.6608
same,Fold change (treated / control),protein SUOX_HUMAN (P51687),0.6055
same,Fold change (treated / control),protein TF3C1_HUMAN (Q12789),0.6535
same,Fold change (treated / control),protein TF3C5_HUMAN (Q9Y5Q8),0.6483
same,Fold change (treated / control),protein TIM8B_HUMAN (Q9Y5J9),0.3123
same,Fold change (treated / control),protein UBL5_HUMAN (Q9BZL1),0.5618
same,Fold change (treated / control),protein UCRI_HUMAN (P47985),0.5774
same,Fold change (treated / control),protein UTP18_HUMAN (Q9Y5J1),0.63
same,Fold change (treated / control),protein VIGLN_HUMAN (Q00341),0.6343
same,Fold change (treated / control),protein XRN2_HUMAN (Q9H0D6),0.664
same,Fold change (treated / control),protein YBOX1_HUMAN (P67809),0.6605
same,Fold change (treated / control),protein ZN326_HUMAN (Q5BKZ1),0.6081
same,Fold change (treated / control),protein ZN428_HUMAN (Q96B54),0.5792
same,Fold change (treated / control),protein ZN595_HUMAN (Q8IYB9),0.6231
